Assay: N-nitrosomethylphenidate content of methylphenidate compositions by UHPLC-MS/MS
Format: physicochemical
Conditions: verbal assessment of Table 2; antioxidant/stabilizer in methylphenidate composition
Description: To determine the effect of various antioxidants or stabilizers on the prevention of nitrosamine formation in compositions containing methylphenidate, different pharmaceutical compositions were prepared as described in Example 1 above, except that antioxidants/stabilizers other than ascorbyl palmitate were used. However, for better comparability, the molar ratio of methylphenidate: antioxidant/stabilizer was kept constant at 1:3 in all compositions (except for the composition with no antioxidant/stabilizer). Accordingly, the compositions of Example 1 and Comparative Examples 2 to 7 differ only in the type of antioxidant/stabilizer and are otherwise composed exactly as shown in Table 1 above for Example 1. The content of N-nitrosomethylphenidate in the compositions was determined by UHPLC-MS/MS. Accordingly, the term “nitrosamine” in the present context refers to “N-nitrosomethylphenidate”. For sample preparation, the compositions were ground and the resulting powders were extracted with methanol. The following measurement conditions were used for the N-nitrosomethylphenidate determination: • LC column: Waters BEH Shield RP18 (100x2.1 mm, 1.7 um) • Flow rate: 0.4 mL/min • Column temperature: 50° C. . . . • Mobile phase: Phase A: Water with 0.1% by volume formic acid • Phase B: Acetonitrile • Gradient conditions: […]

CCCCCCCCCCCCCCCC(=O)OC[C@H](O)[C@H]1OC(=O)C(O)=C1O [ascorbyl palmitate]
effectiveness in reducing nitrosamine formation in compositions with methylphenidate: by far the most effective

— US20250352532A1, “REDUCED N[…] IN PHARMACEUTICAL COMPOSITIONS COMPRISING METHYLPHENIDATE” (MEDICE Arzneimittel Pütter GmbH & Co. KG, priority 2024, published 2025)
